Source: patent US5162523A, “Cephalosporin antibacterial compounds” (Hoffmann-La Roche Inc., priority 1990, dated 1992)
Counter-ions that a name gives are not always drawn.

Experiment: Stability of the product (observation during preparation)
Type: physicochemical
Details: observed during preparation and purification

stability of the product: very unstable
SMILES: CCn1cc(C(=O)O)c(=O)c2cc(F)c(N3CCN(C=N[C@@H]4C(=O)N5[C@@H]4SC(C)(C)[C@@H]5C(=O)O)CC3)nc21 [Compound H, [2S-(2α,5α,6β)]-7-[4-[[(2-Carboxy-2,3-dimethyl-7-oxo-4-thia-1-azabicyclo[3.2.0]-hept-6-yl)imino]methyl]-1-piperazinyl]-1-ethyl-6-fluoro-1,4-dihydro-4-oxo-1,8-naphthyridine-carboxylic acid disodium salt]
